Source: patent US20250277012A1 (Protagonist Therapeutics, Inc., priority 2021, published 2025)
pIC50: −log10 of the molar value. Where two headings read alike, the source gives them in different places. Starred links: 1 amine or outer side, 2 acyl side, 3 side chain; linkers in the order of their positions; H or OH if unused. Positions of bridges follow the written chain, without caps; N, C: chain ends. Non-standard residues stand in square brackets, D forms with d. Residues, ends and D or L forms follow the SMILES beside them. Groups on a side chain read outwards from the residue. *: point of attachment. X1 = C[N+](C)(CCNC(=O)CCCCCCCCCCCCCCCCC(=O)O)CC(=O)*; C18 diacid = O=C(O)CCCCCCCCCCCCCCCCC(=O)*; Dip = N[C@H](C(=O)O)C(c1ccccc1)c1ccccc1; γGlu = O=C(O)[C@H](CCC(=O)[*:2])N[*:1]; dNMeY = CN[C@H](Cc1ccc(O)cc1)C(=O)O; Ethylenediamine = C(CN[*:2])N[*:1]; Palmitoyl = CCCCCCCCCCCCCCCC(=O)*; dNMeQ = CN[C@H](CCC(N)=O)C(=O)O; β3hF = N[C@H](CC(=O)O)Cc1ccccc1; NMeK = CN[C@@H](CCCCN)C(=O)O; Pen = CC(C)(S)[C@H](N)C(=O)O; Isovaleryl = CC(C)CC(=O)*; Dab = NCC[C@H](N)C(=O)O; Dap = NC[C@H](N)C(=O)O; AEEA = NCCOCCOCC(=O)O; Inp = O=C(O)C1CCNCC1; Ahx = NCCCCCC(=O)O

What was measured:
[1] = target: T1, ferroportin (Homo sapiens, UniProt Q9NP59); assay: T47D cell-based ferroportin internalization assay in presence of mouse serum albumin (MSA); parameters: a human breast carcinoma adherent cell line which endogenously expresses ferroportin; host or cells: T47D
T1 sequence (Q9NP59 1-571): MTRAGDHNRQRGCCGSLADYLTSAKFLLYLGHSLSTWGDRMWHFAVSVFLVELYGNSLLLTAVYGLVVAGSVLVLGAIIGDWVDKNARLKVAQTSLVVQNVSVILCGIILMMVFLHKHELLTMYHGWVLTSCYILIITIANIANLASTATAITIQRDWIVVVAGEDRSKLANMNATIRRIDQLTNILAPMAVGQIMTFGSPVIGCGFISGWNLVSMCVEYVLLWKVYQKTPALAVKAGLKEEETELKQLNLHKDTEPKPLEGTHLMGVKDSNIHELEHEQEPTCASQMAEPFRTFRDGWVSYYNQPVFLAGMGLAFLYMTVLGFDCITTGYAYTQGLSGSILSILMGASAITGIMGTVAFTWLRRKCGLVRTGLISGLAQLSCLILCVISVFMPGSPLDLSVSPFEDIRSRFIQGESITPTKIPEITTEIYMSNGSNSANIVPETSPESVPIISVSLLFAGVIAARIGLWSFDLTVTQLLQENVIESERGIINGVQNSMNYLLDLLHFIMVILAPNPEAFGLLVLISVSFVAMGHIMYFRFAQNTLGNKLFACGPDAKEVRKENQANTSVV
Summary of the method: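 Peptide potency for inducing ferroportin internalization was measured in T47D cells in the presence of serum albumin. Cells grown in RPMI with fetal bovine serum were seeded in 96-well plates at 80-100 k cells per well in 100 ul and rested overnight. Dilution series of test peptides were preincubated 30 min at room temperature, then added to the cells after the medium was aspirated.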

[2] = target: T1, ferroportin; assay: FPN activity assay: ferroportin-GFP internalization/degradation in HEK293 cells; assay type: cell-based; parameters: expressed in transfected cells; settings: read-out: FPN IC50
Method: Following internalization, the ferroporin protein is degraded.
A retro inverse peptide is a peptide with a reversed sequence in all D amino acids. An example is that Hy-Glu-Thr-His-NH2 becomes Hy-DHis-DThr-DGlu-NH2. The EC50 of these reference compounds for ferroportin internalization/degradation was determined according to the FPN activity assay described above. These peptides served as control standards.

[3] = T47D internalization assay in presence of mouse serum albumin (MSA), Table 6E
[4] = ferroportin-GFP internalization/degradation, HEK293 cells, Table 6E
[5] = Table 6E, T47D internalization assay with MSA
[6] = Table 6E, ferroportin-GFP internalization/degradation, at least 18 hours incubation
[7] = T47D cells, 0.5% mouse serum albumin, 1 hr incubation
[8] = ferroportin-GFP HEK293 cells, at least 18 hours

Compound | pIC50 [1, 3] | DC50 [2, 4] | pIC50 [1, 7] | DC50 [2, 8] | other results
CCCCCCCCCCCCCCCC(=O)NCCCCCC(=O)NCCCC[C@H]1C(=O)N[C@@H](C(c2ccccc2)c2ccccc2)C(=O)NCCNC(=O)CC[C@H](NC(=O)CC(C)C)C(=O)N[C@@H]([C@@H](C)O)C(=O)N[C@@H](Cc2c[nH]cn2)C(=O)N[C@@H](C(c2ccccc2)c2ccccc2)C(=O)N2CCC[C@H]2C(=O)N[C@H]2CSSC[C@H](NC2=O)C(=O)N1C [compound 161] (Isovaleryl-ETH[Dip]PCC[NMeK]([Ahx-Palmitoyl])[Dip]; linker 1-C via Ethylenediamine; disulfide 6-7) |  |  |  |  | pIC50 [1, 5]: 7.00 to 8.00; DC50 [2, 6]: 0.001 to 0.01 µM
COC(=O)CCC(CCCC(C)C)C(=O)N[C@H](C(=O)N[C@@H](Cc1c[nH]cn1)C(=O)N[C@H](C(=O)N1CCC[C@H]1C(=O)N[C@H]1CSSC[C@@H](C(=O)N(C)[C@@H](CCCCNC(=O)CCCCCNC(=O)C[N+](C)(C)CCNC(=O)CCCCCCCCCCCCCCCCC(=O)O)C(=O)N[C@H](C(=O)N[C@H](CCCCN)C(N)=O)C(c2ccccc2)c2ccccc2)NC1=O)C(c1ccccc1)c1ccccc1)[C@@H](C)O (single isomer, unassigned) [compound 137] |  |  |  |  | pIC50 [1, 5]: 7.00 to 8.00; DC50 [2, 6]: 0.01 to 0.1 µM
CC(C)CC(=O)N[C@@H](CCC(=O)O)C(=O)N[C@H](C(=O)N[C@@H](Cc1c[nH]cn1)C(=O)N[C@H](C(=O)N1CCC[C@H]1C(=O)N[C@H]1CSSC[C@@H](C(=O)N(C)[C@@H](CCCCNC(=O)COCCOCCNC(=O)COCCOCCNC(=O)[C@H](CN)NC(=O)CCCCCCCCCCCCCCCCC(=O)O)C(=O)N[C@H](CC(=O)N[C@@H](CCN)C(N)=O)Cc2ccccc2)NC1=O)C(c1ccccc1)c1ccccc1)[C@@H](C)O [compound 264] (Isovaleryl-ETH[Dip]PCC[NMeK]([AEEA-AEEA-Dap-C18 diacid])[β3hF][Dab]-NH2; disulfide 6-7) | 7.00 to 8.00 | 0.01 to 0.1 µM |  |  | 
CC[C@H](C)[C@@H]1NC(=O)[C@@H](NC(=O)[C@@H]2CCCN2C(=O)[C@@H](NC(=O)[C@H](Cc2c[nH]cn2)NC(=O)[C@@H](NC(=O)[C@H](CCC(=O)O)NC(=O)CC(C)C)[C@@H](C)O)C(c2ccccc2)c2ccccc2)CSSC[C@@H](C(N)=O)NC(=O)C[C@H](Cc2ccccc2)NC(=O)[C@H](CCCCNC(=O)COCCOCCNC(=O)COCCOCCNC(=O)CCCCCNC(=O)CCCCCCCCCCCCCCCCC(=O)O)NC1=O [Compd 23] (Isovaleryl-ETH[Dip]PCIK([AEEA-AEEA-Ahx-C18 diacid])[β3hF]C-NH2; disulfide 6-10) |  |  | 7.00 to 8.00 | 0.01 to 0.1 µM | 
CC[C@H](C)[C@@H]1NC(=O)[C@@H](NC(=O)[C@@H]2CCCN2C(=O)[C@H](Cc2ccccc2)NC(=O)[C@H](Cc2c[nH]cn2)NC(=O)[C@@H](NC(=O)[C@H](CCC(=O)O)NC(=O)CC(C)C)[C@@H](C)O)C(C)(C)SSC(C)(C)[C@@H](C(=O)N[C@@H](CCCCN)C(N)=O)NC(=O)CNC(=O)[C@H](CCCCN)NC(=O)[C@H](CO)NC(=O)[C@H](CCCNC(=N)N)NC(=O)[C@@H]2CCCN2C(=O)[C@H](CCC(=O)O)NC(=O)[C@H](Cc2ccccc2)NC(=O)[C@H](CCCCNC(=O)COCCOCCNC(=O)COCCOCCNC(=O)CC[C@H](NC(=O)CCCCCCCCCCCCCCCCC(=O)O)C(=O)O)NC1=O [Compd 18] (Isovaleryl-ETHFP[Pen]IK([AEEA-AEEA-γGlu-C18 diacid])FEPRSKG[Pen]K-NH2; disulfide 6-16) |  |  | < 6.30 | > 0.5 µM | 
CC[C@H](C)[C@@H]1NC(=O)[C@@H](NC(=O)[C@@H]2CCCN2C(=O)[C@@H](NC(=O)[C@H](Cc2c[nH]cn2)NC(=O)[C@@H](NC(=O)[C@H](CCC(=O)O)NC(=O)CC(C)C)[C@@H](C)O)C(c2ccccc2)c2ccccc2)CSSC[C@@H](C(=O)N[C@H](CC(=O)N[C@@H](CCCCNC(=O)COCCOCCNC(=O)COCCOCCNC(=O)CCCCCNC(=O)CCCCCCCCCCCCCCCCC(=O)O)C(=O)N[C@H](CCCCN)C(N)=O)Cc2ccccc2)NC1=O [Compd 27] (Isovaleryl-ETH[Dip]PCIC[β3hF]K([AEEA-AEEA-Ahx-C18 diacid])[dK]-NH2; disulfide 6-8) |  |  | 7.00 to 8.00 | 0.01 to 0.1 µM | 
COC(=O)CC[C@H](NC(=O)CC(C)C)C(=O)N[C@H](C(=O)N[C@@H](Cc1c[nH]cn1)C(=O)N[C@H](C(=O)N1CCC[C@H]1C(=O)N[C@H]1CSSC[C@@H](C(=O)N[C@@H](CCCCNC(=O)CCCCCNC(=O)C[N+](C)(C)CCNC(=O)CCCCCCCCCCCCCCCCC(=O)O)C(=O)N[C@H](CC(=O)N[C@H](CCCCN)C(N)=O)Cc2ccccc2)NC1=O)C(c1ccccc1)c1ccccc1)[C@@H](C)O [compound 311] (Isovaleryl-E(OMe)TH[Dip]PCCK([Ahx-X1])[β3hF][dK]-NH2; disulfide 6-7) | 7.00 to 8.00 | 0.01 to 0.1 µM |  |  | 
C[C@@H](O)[C@H](NC(=O)[C@H](CCC(=O)O)NC(=O)C1CCNCC1)C(=O)N[C@@H](Cc1c[nH]cn1)C(=O)N[C@H](C(=O)N1CCC[C@H]1C(=O)N[C@H]1CSSC[C@@H](C(=O)N(C)[C@@H](CCCCNC(=O)COCCOCCNC(=O)COCCOCCNC(=O)[C@H](CN)NC(=O)CCCCCCCCCCCCCCCCC(=O)O)C(=O)N[C@H](CC(=O)N[C@H](CCCCN)C(N)=O)Cc2ccccc2)NC1=O)C(c1ccccc1)c1ccccc1 [compound 300] (H-[Inp]ETH[Dip]PCC[NMeK]([AEEA-AEEA-Dap-C18 diacid])[β3hF][dK]-NH2; disulfide 7-8) | 6.30 to 7.00 | 0.1 to 0.5 µM |  |  | 

Second part, led by results:

pIC50 [1, 3] | DC50 [2, 4] | pIC50 [1, 7] | DC50 [2, 8] | Compound | other results
7.00 to 8.00 | 0.01 to 0.1 µM |  |  | CC(C)CC(=O)N[C@@H](CCC(=O)O)C(=O)N[C@H](C(=O)N[C@@H](Cc1c[nH]cn1)C(=O)N[C@H](C(=O)N1CCC[C@H]1C(=O)N[C@H]1CSSC[C@@H](C(=O)N(C)[C@@H](CCCCNC(=O)COCCOCCNC(=O)COCCOCCNC(=O)[C@H](CN)NC(=O)CCCCCCCCCCCCCCCCC(=O)O)C(=O)N[C@H](CC(=O)N[C@H](CCCCN)C(=O)N(C)[C@H](CCC(N)=O)C(N)=O)Cc2ccccc2)NC1=O)C(c1ccccc1)c1ccccc1)[C@@H](C)O [compound 248] (Isovaleryl-ETH[Dip]PCC[NMeK]([AEEA-AEEA-Dap-C18 diacid])[β3hF][dK][dNMeQ]-NH2; disulfide 6-7) | 
7.00 to 8.00 | 0.01 to 0.1 µM |  |  | CC(C)CC(=O)N[C@@H](CCC(=O)O)C(=O)N[C@H](C(=O)N[C@@H](Cc1cnc[nH]1)C(=O)N[C@H](C(=O)N1CCC[C@H]1C(=O)N[C@H]1CSSC[C@@H](C(=O)N(C)[C@@H](CCCCNC(=O)COCCOCCNC(=O)COCCOCCNC(=O)[C@H](CN)NC(=O)CCCCCCCCCCCCCCCCC(=O)O)C(=O)N[C@H](C(=O)N(C)[C@@H](CCCCN)C(N)=O)C(c2ccccc2)c2ccccc2)NC1=O)C(c1ccccc1)c1ccccc1)[C@@H](C)O [compound 275] (Isovaleryl-ETH[Dip]PCC[NMeK]([AEEA-AEEA-Dap-C18 diacid])[Dip][NMeK]-NH2; disulfide 6-7) | 
 |  | 7.00 to 8.00 | 0.01 to 0.1 µM | CC[C@H](C)[C@H](NC(=O)[C@@H]1CSSC[C@H](NC(=O)[C@@H](NC(=O)[C@H](Cc2c[nH]cn2)NC(=O)[C@@H](NC(=O)[C@H](CCC(=O)O)NC(=O)CC(C)C)[C@@H](C)O)C(c2ccccc2)c2ccccc2)C(=O)N1)C(=O)N[C@@H](CCCCNC(=O)COCCOCCNC(=O)COCCOCCNC(=O)CC[C@H](NC(=O)CCCCCCCCCCCCCCCCC(=O)O)C(=O)O)C(=O)N[C@H](CC(=O)N[C@H](CCCCN)C(N)=O)Cc1ccccc1 [Compd 30] (Isovaleryl-ETH[Dip]CCIK([AEEA-AEEA-γGlu-C18 diacid])[β3hF][dK]-NH2; disulfide 5-6) | 
 |  | 8.00 to 9.00 | 0.01 to 0.1 µM | CCCCCCCCCCCCCCCC(=O)NCCCCCC(=O)NCCCC[C@H](NC(=O)C[C@H](Cc1ccccc1)NC(=O)[C@@H](CCCCN)NC(=O)[C@@H](NC(=O)[C@H](C)NC(=O)[C@@H]1CSSC[C@H](NC(=O)[C@H](CCC(=O)O)NC(=O)CC(C)C)C(=O)N[C@@H](Cc2c[nH]cn2)C(=O)N[C@@H](C(c2ccccc2)c2ccccc2)C(=O)N1)[C@@H](C)CC)C(=O)N[C@H](CCCCN)C(=O)N[C@@H](C)C(N)=O [Compd 45] (Isovaleryl-ECH[Dip]CAI[dK][β3hF]K([Ahx-Palmitoyl])[dK]A-NH2; disulfide 2-5) | 
7.00 to 8.00 | 0.01 to 0.1 µM |  |  | CC(C)CC(=O)N[C@@H](CCC(=O)O)C(=O)N[C@H](C(=O)N[C@@H](Cc1c[nH]cn1)C(=O)N[C@H](C(=O)N1CCC[C@H]1C(=O)N[C@H]1CSSC[C@@H](C(=O)N(C)[C@@H](CCCCNC(=O)COCCOCCNC(=O)COCCOCCNC(=O)[C@H](CN)NC(=O)CCCCCCCCCCCCCCCCC(=O)O)C(=O)N[C@H](CC(=O)N[C@H](CCCCN)C(=O)N(C)[C@H](Cc2ccc(O)cc2)C(N)=O)Cc2ccccc2)NC1=O)C(c1ccccc1)c1ccccc1)[C@@H](C)O [compound 257] (Isovaleryl-ETH[Dip]PCC[NMeK]([AEEA-AEEA-Dap-C18 diacid])[β3hF][dK][dNMeY]-NH2; disulfide 6-7) | 
